Tests used:
VPS35 [1] = target: T1, VPS35 (Homo sapiens, UniProt Q96QK1); assay: Western blot of VPS35 protein levels in HECT293T cells after VPS35 plasmid transfection and/or R55; type: cell-based; details: 5 μM of R55, Western blot 72 hours after transfection, lanes 7 and 8
T1 construct: expressed in transfected cells; host or cells: HECT293T cells
Experimental: Human HECT293 cells, considered a model for human neurons, were cultured. VPS35 was delivered via plasmid to HECT293T cells under control of the constitutive EF1a promoter. Pharmacological chaperone R55 was administered to the cells as an aqueous solution at concentrations of 5 uM and 50 uM at the time of transfection. Protein levels were assessed by Western blot 72 hours after transfection.
Lipofectamine transfection protocols were used with some modifications. Briefly lipofectamine LTX was used to co-transfect Vps35 and Vps26 (Vps26a or Vps26b) plasmids into the cells in a 6 well format. 100k cells were plated in each well already containing medium with DNA-lipofectamine complexes. Empty chassis and GFP as were used as control plasmids. Amount of DNA copies introduced per well was 2.81 E+11. Cells were harvested 48 hours after transfection using RIPA buffer as described previously (Qureshi et al. 2019).
Cells were lysed in RIPA and protein were isolated as described previously (Qureshi et al. 2019; Kirby et al. 2015). Lysates from the samples were run on NuPAGE® Bis-Tris 4-12% gels, transferred onto nitrocellulose membranes using iblot and were probed with antibodies.
A primary antibody targeting VPS35 was used (ab57632, Abcam, 1:1k). Western blots were scanned using the Odyssey imaging system as described previously (Eaton et al. 2013). […]

[2] = target: purified, reconstituted heterotrimeric complex (Homo sapiens, UniProt Q96QK1+Q9UBQ0); details: various concentrations; Mecozzi et al. 2014; cited from earlier work
VPS26 = details: cultured primary neurons; Mecozzi et al. 2014; cited from earlier work
VPS35 [3] = target: T2, VPS35 (Mus musculus, UniProt Q9EQH3); details: cultured primary neurons; Mecozzi et al. 2014; cited from earlier work
T2 construct: cultured primary neurons; endogenous in cells; host or cells: cultured primary neurons

increase on endogenous VPS35 protein levels (VPS35 [1]): about 50%
Compound: [H]/N=C(\N)SCc1ccc(CS/C(N)=N/[H])s1 [R55]
thermal stability (denaturation temperature of the complex) [2]: improved thermal stability significantly | VPS26 protein levels (VPS26): increased | VPS35 protein levels (VPS35 [3]): increased
